Source: US11111237B2, “Bicyclic compound and use thereof” (SK BIOPHARMACEUTICALS CO., LTD., priority 2019, dated 2021)

Target: PRMT5-MEP50 enzyme complex (Homo sapiens (Human), UniProt O14744)
Assay: PRMT5 enzyme activity in vitro assay (methylation of histone H4R3, ELISA absorbance at 450 nm)
Format: biochemical
Settings: SAM, histone H4 peptide, room temperature 2 hours, 8 points from 10 μM to 0.128 nM
Summary of the method: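 IC50 was derived from ELISA absorbance at 450 nm, using primary and HRP antibodies against H4R3 methylation on immobilised histone H4 peptide (residues 1-20). Compounds (10 μM to 0.128 nM, 8 points, 1:5) were incubated 2 h at room temperature with the PRMT5-MEP50 complex and SAM, diluted to 5 μg/mL and 2 μM respectively.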

PRMT5-MEP50 enzyme complex, sequence (O14744 2-637): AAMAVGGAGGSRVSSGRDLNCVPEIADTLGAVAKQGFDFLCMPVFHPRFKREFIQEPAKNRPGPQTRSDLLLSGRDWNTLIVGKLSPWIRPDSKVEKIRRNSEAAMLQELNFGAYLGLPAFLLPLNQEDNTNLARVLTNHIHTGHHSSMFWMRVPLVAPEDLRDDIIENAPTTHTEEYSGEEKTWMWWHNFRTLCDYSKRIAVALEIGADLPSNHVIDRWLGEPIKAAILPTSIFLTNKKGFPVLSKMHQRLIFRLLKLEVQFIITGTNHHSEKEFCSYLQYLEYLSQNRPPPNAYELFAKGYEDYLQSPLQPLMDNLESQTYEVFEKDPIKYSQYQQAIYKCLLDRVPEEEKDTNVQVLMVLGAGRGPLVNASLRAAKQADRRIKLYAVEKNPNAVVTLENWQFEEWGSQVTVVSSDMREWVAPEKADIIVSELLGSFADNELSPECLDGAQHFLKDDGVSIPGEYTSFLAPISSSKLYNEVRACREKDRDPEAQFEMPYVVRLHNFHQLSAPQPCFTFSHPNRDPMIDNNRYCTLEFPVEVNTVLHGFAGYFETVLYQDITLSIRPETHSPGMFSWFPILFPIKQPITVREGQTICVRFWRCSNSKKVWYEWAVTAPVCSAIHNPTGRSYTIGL
PRMT5-MEP50 enzyme complex, sequence (Q9BQA1 2-342 partner): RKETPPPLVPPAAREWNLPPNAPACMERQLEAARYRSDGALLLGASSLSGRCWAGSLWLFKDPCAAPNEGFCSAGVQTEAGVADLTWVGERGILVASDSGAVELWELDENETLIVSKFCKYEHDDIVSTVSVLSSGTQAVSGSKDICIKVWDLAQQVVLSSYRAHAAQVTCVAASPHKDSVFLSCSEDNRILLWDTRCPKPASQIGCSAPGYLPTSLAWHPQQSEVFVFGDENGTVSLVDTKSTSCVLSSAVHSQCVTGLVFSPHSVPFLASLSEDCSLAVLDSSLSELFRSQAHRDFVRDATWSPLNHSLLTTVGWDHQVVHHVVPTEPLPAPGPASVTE

Row | SMILES | IC50 [µM]
1 | O=C1c2ccc(CN3CC4CC3CO4)cc2OCCN1C[C@H](O)CN1CCc2ccccc2C1 (stereo partly drawn) [Example 55, 4-[(2R)-3-(3,4-dihydro-1H-isoquinolin-2-yl)-2-hydroxy-propyl]-8-(2-oxa-5-azabicyclo[2.2.1]heptan-5-ylmethyl)-2,3-dihydro-1,4-benzoxazepin-5-one] | 0.1 to 1
2 | O=C1c2ccc(OCc3ccncc3F)cc2OCCN1C[C@H](O)CN1CCc2ccccc2C1 [Example 62, 4-[(2R)-3-(3,4-dihydro-1H-isoquinolin-2-yl)-2-hydroxy-propyl]-8-[(3-fluoro-4-pyridyl)methoxy]-2,3-dihydro-1,4-benzoxazepin-5-one] | 0.001 to 0.1
3 | CCN1C2CCC1CC(Oc1ccc3c(c1)OCCN(C[C@H](O)CN1CCc4ccccc4C1)C3=O)C2 (stereo partly drawn) [Example 171, 4-[(2R)-3-(3,4-dihydro-1H-isoquinolin-2-yl)-2-hydroxy-propyl]-8-[(8-ethyl-8-azabicyclo[3.2.1]octan-3-yl)oxy]-2,3-dihydro-1,4-benzoxazepin-5-one] | 0.001 to 0.1
4 | CC1CN(C[C@H](O)CN2CCc3ccccc3C2)C(=O)c2ccc(OC3CCN(C)CC3)nc2O1 (stereo partly drawn) [Example 144, 4-[(2R)-3-(3,4-dihydro-1H-isoquinolin-2-yl)-2-hydroxypropyl]-2-methyl-8-[(1-methyl-4-piperidyl)oxy]-2,3-dihydropyrido[3,2-f][1,4]oxazepin-5-one] | 0.1 to 1
5 | O=C1c2ccccc2OCCN1CC(O)CN1CCc2ccccc2C1 (centres unmarked) [Example 147, 4-[3-(3,4-dihydro-1H-isoquinolin-2-yl)-2-hydroxy-propyl]-2,3-dihydro-1,4-benzoxazepin-5-one] | 0.1 to 1
6 | COC[C@@H]1CCCN1Cc1ccc2c(c1)OCCN(C[C@H](O)CN1CCc3ccccc3C1)C2=O [Example 49, 4-[(2R)-3-(3,4-dihydro-1H-isoquinolin-2-yl)-2-hydroxy-propyl]-8-[[(2S)-2-(methoxymethyl)pyrrolidin-1-yl]methyl]-2,3-dihydro-1,4-benzoxazepin-5-one] | 0.1 to 1
7 | CCC(=O)N1CC(Oc2ccc3c(c2)OCCN(C[C@H](O)CN2CCc4ccccc4C2)C3=O)C1 [Example 84, 4-[(2R)-3-(3,4-dihydro-1H-isoquinolin-2-yl)-2-hydroxy-propyl]-8-(1-propanoylazetidin-3-yl)oxy-2,3-dihydro-1,4-benzoxazepin-5-one] | 0.1 to 1
8 | O=C1c2ccc(OC3CCN(CCO)CC3F)cc2OCCN1C[C@H](O)CN1CCc2ccccc2C1 (stereo partly drawn) [Example 208, 4-[(2R)-3-(3,4-dihydro-1H-isoquinolin-2-yl)-2-hydroxy-propyl]-8-[[3-fluoro-1-(2-hydroxyethyl)-4-piperidyl]oxy]-2,3-dihydro-1,4-benzoxazepin-5-one] | 0.1 to 1
9 | CCC(=O)c1ccc2c(c1)OCCN(C[C@H](O)CN1CCc3ccccc3C1)C2=O [Example 214, 4-[(2R)-3-(3,4-dihydro-1H-isoquinolin-2-yl)-2-hydroxy-propyl]-8-propanoyl-2,3-dihydro-1,4-benzoxazepin-5-one] | 0.1 to 1
10 | CC(=O)N1CC(Oc2ccc3c(c2)OC(C)(C)CN(C[C@H](O)CN2CCc4ccccc4C2)C3=O)C1 [Example 114, 8-(1-acetylazetidin-3-yl)oxy-4-[(2R)-3-(3,4-dihydro-1H-isoquinolin-2-yl)-2-hydroxy-propyl]-2,2-dimethyl-3H-1,4-benzoxazepin-5-one] | 0.001 to 0.1
11 | COCCN1CCC(Oc2ccc3c(n2)OC(C)(C)CN(C[C@H](O)CN2CCc4ccccc4C2)C3=O)CC1 [Example 262, 4-[(2R)-3-(3,4-dihydro-1H-isoquinolin-2-yl)-2-hydroxy-propyl]-8-[[1-(2-methoxyethyl)-4-piperidyl]oxy]-2,2-dimethyl-3H-pyrido[3,2-f][1,4]oxazepin-5-one] | 0.1 to 1
12 | CC1CN(C[C@H](O)CN2CCc3ccccc3C2)C(=O)c2ccc(OC3CCN(C)CC3)cc2O1 (stereo partly drawn) [Example 141, 4-[(2R)-3-(3,4-dihydro-1H-isoquinolin-2-yl)-2-hydroxypropyl]-2-methyl-8-[(1-methyl-4-piperidyl)oxy]-2,3-dihydro-1,4-benzoxazepin-5-one] | 0.001 to 0.1
13 | CC1(C)CN(C[C@H](O)CN2CCc3ccccc3C2)C(=O)c2ccc(C(=O)N3CC4CC3CO4)cc2O1 (stereo partly drawn) [Example 204, 4-[(2R)-3-(3,4-dihydro-1H-isoquinolin-2-yl)-2-hydroxy-propyl]-2,2-dimethyl-8-(2-oxa-5-azabicyclo[2.2.1]heptan-5-carbonyl)-3H-1,4-benzoxazepin-5-one] | 0.1 to 1
14 | CC1(C)CN(C[C@H](O)CN2CCc3ccccc3C2)C(=O)c2ccc(CN3CCC4(COC4)C3)cc2O1 [Example 183, 4-[(2R)-3-(3,4-dihydro-1H-isoquinolin-2-yl)-2-hydroxy-propyl]-2,2-dimethyl-8-(2-oxa-7-azaspiro[3.4]octan-7-ylmethyl)-3H-1,4-benzoxazepin-5-one] | 0.1 to 1
15 | CCN(CC)Cc1ccc2c(c1)OCCN(C[C@H](O)CN1CCc3ccccc3C1)C2=O [Example 26, 8-(diethylaminomethyl)-4-[(2R)-3-(3,4-dihydro-1H-isoquinolin-2-yl)-2-hydroxy-propyl]-2,3-dihydro-1,4-benzoxazepin-5-one] | 0.1 to 1
16 | CCN1CCC(Oc2ccc3c(c2)OC(C)(C)CN(C[C@H](O)CN2CCc4ccccc4C2)C3=O)CC1 [Example 110, 4-[(2R)-3-(3,4-dihydro-1H-isoquinolin-2-yl)-2-hydroxy-propyl]-8-[(1-ethyl-4-piperidyl)oxy]-2,2-dimethyl-3H-1,4-benzoxazepin-5-one] | 0.1 to 1
17 | O=C1c2ccc(CN3CCC[C@@H]3CO)cc2OCCN1C[C@H](O)CN1CCc2ccccc2C1 [Example 47, 4-[(2R)-3-(3,4-dihydro-1H-isoquinolin-2-yl)-2-hydroxy-propyl]-8-[[(2R)-2-(hydroxymethyl)pyrrolidin-1-yl]methyl]-2,3-dihydro-1,4-benzoxazepin-5-one] | 0.1 to 1
18 | O=C1c2c(F)cc(CN3CCOCC3)cc2OCCN1C[C@H](O)CN1CCc2ccccc2C1 [Example 108, 4-[(2R)-3-(3,4-dihydro-1H-isoquinolin-2-yl)-2-hydroxy-propyl]-6-fluoro-8-(morpholinomethyl)-2,3-dihydro-1,4-benzoxazepin-5-one] | 1 to 10
19 | O=C1c2ccc(C#Cc3ccncc3)cc2OCCN1C[C@H](O)CN1CCc2ccccc2C1 [Example 226, 4-[(2R)-3-(3,4-dihydro-1H-isoquinolin-2-yl)-2-hydroxy-propyl]-8-[2-(4-pyridyl)ethynyl]-2,3-dihydro-1,4-benzoxazepin-5-one] | 0.001 to 0.1

Now from value to molecule:

Row | IC50 [µM] | SMILES
20 | 0.001 to 0.1 | O=C1c2ccc(CCC(F)(F)F)cc2OCCN1C[C@H](O)CN1CCc2ccccc2C1 [Example 13, 4-[(2R)-3-(3,4-dihydro-1H-isoquinolin-2-yl)-2-hydroxy-propyl]-8-(3,3,3-trifluoropropyl)-2,3-dihydro-1,4-benzoxazepin-5-one]
21 | 0.1 to 1 | COC(=O)N1CC(Oc2ccc3c(c2)OCCN(C[C@H](O)CN2CCc4ccccc4C2)C3=O)C1 [Example 86, methyl 3-[[4-[(2R)-3-(3,4-dihydro-1H-isoquinolin-2-yl)-2-hydroxy-propyl]-5-oxo-2,3-dihydro-1,4-benzoxazepin-8-yl]oxy]azetidin-1-carboxylate]
22 | 0.1 to 1 | CC(=O)N1CC[C@H](Oc2ccc3c(c2)N(C)CCN(C[C@H](O)CN2CCc4ccccc4C2)C3=O)C1 [Example 124, 8-[(3S)-1-acetylpyrrolidin-3-yl]oxy-4-[(2R)-3-(3,4-dihydro-1H-isoquinolin-2-yl)-2-hydroxy-propyl]-1-methyl-2,3-dihydro-1,4-benzodiazepin-5-one]
23 | 0.1 to 1 | CC(=O)N1CCCC(Oc2ccc3c(c2)OCCN(C[C@H](O)CN2CCc4ccccc4C2)C3=O)C1 (stereo partly drawn) [Example 79, 8-[(1-acetyl-3-piperidyl)oxy]-4-[(2R)-3-(3,4-dihydro-1H-isoquinolin-2-yl)-2-hydroxy-propyl]-2,3-dihydro-1,4-benzoxazepin-5-one]
24 | 0.001 to 0.1 | CC1CN(Cc2ccc3c(c2)OCCN(C[C@H](O)CN2CCc4ccccc4C2)C3=O)CCO1 (stereo partly drawn) [Example 30, 4-[(2R)-3-(3,4-dihydro-1H-isoquinolin-2-yl)-2-hydroxy-propyl]-8-[(2-methylmorpholin-4-yl)methyl]-2,3-dihydro-1,4-benzoxazepin-5-one]
25 | 0.1 to 1 | C[C@@H]1CN(C[C@H](O)CN2CCc3ccccc3C2)C(=O)c2ccc(O[C@@H]3CCN(C)C3)cc2O1 [Example 273, (2R)-4-[(2R)-3-(3,4-dihydro-1H-isoquinolin-2-yl)-2-hydroxy-propyl]-2-methyl-8-[(3R)-1-methylpyrrolidin-3-yl]oxy-2,3-dihydro-1,4-benzoxazepin-5-one]
26 | 0.001 to 0.1 | CN(CCF)C1CCC(Oc2ccc3c(c2)OCCN(C[C@H](O)CN2CCc4ccccc4C2)C3=O)CC1 (stereo partly drawn) [Example 199, 4-[(2R)-3-(3,4-dihydro-1H-isoquinolin-2-yl)-2-hydroxypropyl]-8-[4-[2-fluoroethyl(methyl)amino]cyclohexoxy]-2,3-dihydro-1,4-benzoxazepin-5-one]
27 | 0.1 to 1 | O=C1c2ccc(CN3CCC(F)C3)cc2OCCN1C[C@H](O)CN1CCc2ccccc2C1 (stereo partly drawn) [Example 51, 4-[(2R)-3-(3,4-dihydro-1H-isoquinolin-2-yl)-2-hydroxy-propyl]-8-[(3-fluoropyrrolidin-1-yl)methyl]-2,3-dihydro-1,4-benzoxazepin-5-one]
28 | 0.1 to 1 | O=C(c1ccc2c(c1)OCCN(C[C@H](O)CN1CCc3ccccc3C1)C2=O)C1CCCC1 [Example 217, 8-(cyclopentanecarbonyl)-4-[(2R)-3-(3,4-dihydro-1H-isoquinolin-2-yl)-2-hydroxy-propyl]-2,3-dihydro-1,4-benzoxazepin-5-one]
29 | 0.001 to 0.1 | CC(=O)N1CCC(c2ccc3c(c2)OCCN(C[C@H](O)CN2CCc4ccccc4C2)C3=O)CC1 [Example 17, 8-(1-acetyl-4-piperidyl)-4-[(2R)-3-(3,4-dihydro-1H-isoquinolin-2-yl)-2-hydroxy-propyl]-2,3-dihydro-1,4-benzoxazepin-5-one]
